Test results: ChEMBL document CHEMBL5233261, “Recent accomplishments on the synthetic/biological facets of pharmacologically active 1H-1,2,3-triazoles” (Eur J Med Chem, 2021)
pIC50: −log10 of the molar value. ≈ marks a conversion by molar mass, not a printed value. Where “and” joins values, the source holds several entries; their conditions need not be identical. Equal values may be shown once.

Legend:
[1] = system: Mycobacterium tuberculosis; experiment: Antibacterial activity against Mycobacterium tuberculosis H37Rv strain assessed as bacterial growth inhibition by MABA Assay; type: functional, organism-based
DU-145 = experiment: Anticancer activity against human DU-145 cells assessed as cell growth inhibition by MTT assay; type: functional, cell-based
MCF7 [2] = experiment: Anticancer activity against human MCF7 cells assessed as cell growth inhibition incubated for 48 hrs by MTT assay; type: functional, cell-based; settings: MCF7, 48 h
Bacillus subtilis [3] = experiment: Antibacterial activity against Bacillus subtilis assessed as bacterial growth inhibition; type: functional
Candida albicans = experiment: Antifungal activity against Candida albicans assessed as […] growth inhibition; type: functional
Aspergillus niger = experiment: Antifungal activity against Aspergillus niger assessed as […] growth inhibition; type: functional
Pseudomonas aeruginosa [4] = experiment: Antibacterial activity against Pseudomonas aeruginosa assessed as bacterial growth inhibition; type: functional
[5] = system: Staphylococcus epidermidis; experiment: Antibacterial activity against Staphylococcus epidermidis assessed as bacterial growth inhibition; type: functional
Escherichia coli [6] = experiment: Antibacterial activity against Escherichia coli assessed as bacterial growth inhibition; type: functional
MDA-MB-231 = experiment: Anticancer activity against human MDA-MB-231 cells assessed as cell growth inhibition incubated for 48 hrs by MTT assay; type: functional, cell-based; settings: MDA-MB-231, 48 h
HeLa [7] = experiment: Anticancer activity against human HeLa cells assessed as cell growth inhibition incubated for 48 hrs by MTT assay; type: functional, cell-based
Plasmodium falciparum [8] = experiment: Antimalarial activity against Plasmodium falciparum 3D7 strain by MSF assay; type: functional, organism-based
HeLa [9] = experiment: Anticancer activity against human HeLa cells assessed as cell growth inhibition incubated for 72 hrs by MTT assay; type: functional, cell-based
MCF7 [10] = experiment: Anticancer activity against human MCF7 cells assessed as cell growth inhibition incubated for 72 hrs by MTT assay; type: functional, cell-based; settings: MCF7, 72 h
Plasmodium falciparum [11] = experiment: Antimalarial activity against Plasmodium falciparum RKL-2 strain incubated for 40 hrs by Giemsa staining based microscopic analysis; type: functional, organism-based; settings: RKL-2, 40 h
Plasmodium berghei = experiment: In vivo antimalarial activity against Plasmodium berghei infected in swiss albino mouse at 50 microg/kg, ip administered as single dose for 4 to 6 weeks relative to control; type: functional; settings: dose 50 µg/kg, time 4-6 weeks
Plasmodium falciparum [12] = experiment: Antimalarial activity against Plasmodium falciparum 3D7 strain incubated for 40 hrs by Giemsa staining based microscopic analysis; type: functional, organism-based; settings: 3D7, 40 h
MCF7 [13] = experiment: Anticancer activity against human MCF7 cells assessed as cell growth inhibition incubated for 24 hrs by MTT assay; type: functional, cell-based; settings: MCF7, 24 h
[14] = system: Mycobacterium tuberculosis; experiment: Antibacterial activity against Mycobacterium tuberculosis H37Rv MTCC 200 strain assessed as bacterial growth inhibition; type: functional
[15] = system: Mycobacterium tuberculosis; experiment: Antibacterial activity against Mycobacterium tuberculosis H37Rv strain assessed as bacterial growth inhibition incubated for 7 days by Resazurin Microtiter Assay; type: functional; settings: 168 h, time 7 day
Escherichia coli [16] = experiment: Antibacterial activity against Escherichia coli assessed as bacterial growth inhibition incubated for 24 hrs by agar well diffusion assay; type: functional
Staphylococcus aureus [17] = experiment: Antibacterial activity against Staphylococcus aureus assessed as bacterial growth inhibition incubated for 24 hrs by agar well diffusion assay; type: functional
Bacillus subtilis [18] = experiment: Antibacterial activity against Bacillus subtilis assessed as bacterial growth inhibition incubated for 24 hrs by agar well diffusion assay; type: functional
[19] = system: Mycobacterium tuberculosis; experiment: Antibacterial activity against Mycobacterium tuberculosis H37Rv ATCC 27294 strain assessed as bacterial growth inhibition by MABA Assay; type: functional
[20] = system: Mycobacterium tuberculosis; experiment: Antibacterial activity against Mycobacterium tuberculosis H37Ra ATCC 25177 assessed as bacterial growth inhibition by XTT Reduction Menadione Assay; type: functional
Klebsiella pneumoniae = experiment: Antibacterial activity against Klebsiella pneumoniae assessed as bacterial growth inhibition incubated for 12 hrs by well plate assay; type: functional
[21] = system: Staphylococcus epidermidis; experiment: Antibacterial activity against Staphylococcus epidermidis assessed as bacterial growth inhibition incubated for 12 hrs by well plate assay; type: functional
Pseudomonas aeruginosa [22] = experiment: Antibacterial activity against Pseudomonas aeruginosa assessed as bacterial growth inhibition incubated for 12 hrs by well plate assay; type: functional
Staphylococcus aureus [23] = experiment: Antibacterial activity against Staphylococcus aureus assessed as bacterial growth inhibition incubated for 12 hrs by well plate assay; type: functional
[24] = Pseudomonas aeruginosa, read-out: MIC
[25] = Escherichia coli, read-out: MIC

O=c1c(Cn2cc(CCCCCCCCCCCCCCCO)nn2)coc2ccccc12
IC50 [1]: 1.56 mg/L (≈ 3.44 µM)

COc1cc([C@H]2c3cc4c(cc3[C@H](OCc3cn([C@@H]5O[C@H](COC(C)=O)[C@@H](OC(C)=O)[C@H](OC(C)=O)[C@H]5OC(C)=O)nn3)[C@@H]3COC(=O)[C@@H]23)OCO4)cc(OC)c1OC
pIC50 (DU-145): 5.99

N#CC1=C(N)Oc2cc3c(cc2C12C(=O)N(Cc1cn(Cc4ccc([N+](=O)[O-])cc4)nn1)c1ccccc12)[nH]c1ccccc13 (configuration not stated)
pIC50 (MCF7 [2]): 5.67

O=C(Cn1cc(-c2cccc(F)c2)nn1)Nc1ccc(F)cc1
MIC (Bacillus subtilis [3]): 0.0199 umol/cm3
MIC (Candida albicans): 0.0199 umol/cm3
MIC (Aspergillus niger): 0.0199 umol/cm3
MIC (Pseudomonas aeruginosa [4]): 0.0199 umol/cm3
MIC [5]: 0.0199 umol/cm3
MIC (Escherichia coli [6]): 0.0199 umol/cm3

CCC(C)n1cc(CN2C(=O)C3(C(C#N)=C(N)Oc4cc5c(cc43)[nH]c3ccccc35)c3ccccc32)nn1 (configuration not stated)
pIC50 (MDA-MB-231): 5.67

Cc1cc(O)c(C(=O)/C=C/c2ccc(OCc3cn(Cc4ccc(Br)cc4)nn3)cc2)c(=O)o1
MIC (Bacillus subtilis [3]; Bacillus subtilis, read-out: MIC): 3 µM (≈ 1.57 µg/mL)
MIC (Candida albicans; Candida albicans, read-out: MIC): 3 µM (≈ 1.57 µg/mL)
MIC (Aspergillus niger; Aspergillus niger, read-out: MIC): 3 µM (≈ 1.57 µg/mL)
MIC (Pseudomonas aeruginosa [4]; [24]): 3 µM
MIC ([5]; Staphylococcus epidermidis, read-out: MIC): 3 µM (≈ 1.57 µg/mL)
MIC (Escherichia coli [6]; [25]): 3 µM

Cc1ccc(Cn2cc(CN3C(=O)C4(C(C#N)=C(N)Oc5cc6c(cc54)[nH]c4ccccc46)c4cc(F)ccc43)nn2)cc1 (configuration not stated)
pIC50 (HeLa [7]): 5.47

[N-]=[N+]=NCC(=O)NCCNc1ccnc2cc(Cl)ccc12
pIC50 (Plasmodium falciparum [8]): 7.41

Cc1ccc(-n2cc(CSc3nnc(C(C)c4ccc(CC(C)C)cc4)o3)nn2)c(C)c1 (configuration not stated)
IC50 (HeLa [9]): 27.5 mg/L (≈ 61.4 µM)
IC50 (MCF7 [10]): 31 mg/L (≈ 69.3 µM)

NC(=O)N/N=C/c1ccccc1OCc1cn(-c2ccc(Br)cc2)nn1
MIC (Pseudomonas aeruginosa [4]; [24]): 60.2 µM

C[C@H]1[C@H](N=[N+]=[N-])O[C@@H]2O[C@]3(C)CC[C@H]4[C@H](C)CC[C@@H]1[C@@]24OO3
IC50 (Plasmodium falciparum [11]): 0.865 mg/L (≈ 2.8 µM)
Activity (Plasmodium berghei): 59%
IC50 (Plasmodium falciparum [12]): 0.066 mg/L (≈ 0.213 µM)

O=C1C(=O)N(CCCCn2cc(COCCOc3ccc(/C(=C(/CCCl)c4ccccc4)c4ccccc4)cc3)nn2)c2c(Br)cc(Br)cc21
pIC50 (MCF7 [13]): 4.96

O=C(Cn1cc(-c2ccccc2)nn1)Nc1ccccc1
MIC [14]: 0.0898 umol/cm3

NC(=O)N/N=C/c1ccc(OCc2cn(-c3ccc(F)cc3)nn2)cc1
MIC (Pseudomonas aeruginosa [4]; [24]): 35.3 µM

C#CCCO[C@@H]1O[C@@H]2O[C@]3(C)CC[C@H]4[C@H](C)CC[C@@H]([C@H]1C)[C@@]24OO3
IC50 (Plasmodium falciparum [11]): 8 mg/L (≈ 23.8 µM)
IC50 (Plasmodium falciparum [12]): 0.215 mg/L (≈ 0.639 µM)

O=C1C(=O)N(CCCn2cc(COCCOc3ccc(/C(=C(/CCCl)c4ccccc4)c4ccccc4)cc3)nn2)c2c(Br)cc(Br)cc21
pIC50 (MCF7 [13]): 4.78

Cc1cc(=O)oc2cc(OCc3cn(CCCCCCn4cc(COc5cc6oc(=O)cc(C)c6cc5Cl)nn4)nn3)c(Cl)cc12
MIC [15]: 1.56 mg/L (≈ 2.34 µM)
inhibition zone (IZ) (Escherichia coli [16]): 14 mm
inhibition zone (IZ) (Staphylococcus aureus [17]): 16 mm
inhibition zone (IZ) (Bacillus subtilis [18]): 19 mm

COc1ccc2nc(Cl)c(C(=O)NCc3cn(C(=O)c4ccc(F)cc4)nn3)cc2c1
MIC (Pseudomonas aeruginosa [4]; [24]): 6.25 mg/L
MIC (Escherichia coli [6]; [25]): 6.25 mg/L

COc1ccc(C(=O)Cn2cc(CNC(=O)c3cc4cc(OC)ccc4nc3Cl)nn2)cc1
MIC [19]: 1.6 mg/L (≈ 3.43 µM)

CC(=O)Nc1ccc(N2C=C(C(c3c[nH]c4ccc(Br)cc34)c3c[nH]c4ccc(Br)cc34)NN2)cc1
MIC [20]: 3 mg/L and 1 mg/L

COc1ccccc1/N=C/c1c(OCc2cn(CCC[Si]34OCCN(CCO3)CCO4)nn2)ccc2ccccc12
MIC (Klebsiella pneumoniae): 106 mg/L (≈ 185 µM)
MIC [21]: 26.5 mg/L (≈ 46.2 µM)
MIC (Pseudomonas aeruginosa [22]): 106 mg/L (≈ 185 µM)
MIC (Staphylococcus aureus [23]): 26.5 mg/L (≈ 46.2 µM)
